Data: patent US20040077720A1, “Inhibition of antibody production employing perfluorooctanoic acid or derivatives thereof” (priority 2002, published 2004)
“Also recorded” adds a separate entry of the source.

Columns and labels:
horse erythrocytes = assay: Immunization with horse erythrocytes after treatment; antibody response; assay type: in vivo; settings: mice treated, then immunized with horse erythrocytes
From the text: (§1) By inhibiting antibody production, this substance also prevents the formation of immunocomplexes. These treated animals appear completely normal, without joint deterioration, lymphocyte proliferation, dermal vasculitis or immunocomplex-mediated glomerulonephritis.

thymus and spleen = assay: Laboratory studies: thymus and spleen; design: species or system rodent; settings: in vivo
From the text: PFOA belongs to a group of chemicals that induce peroxisome proliferation in the liver in rodent. […] These initial observations led to the inventors' discovery that PFOA could interfere with the immune system, and that PFOA could express immunosuppressive properties.

MRL/MpJ-Tnfrsf6^1pr-Mice [1] = assay: Treatment of MRL/MpJ-Tnfrsf6 lpr mice (spontaneous SLE-like autoimmune syndrome); clinical observation, urine, autopsy; assay type: in vivo
From the text: As the experimental animal model for studies of inhibition of disease development and the underlying mechanism(s), Applicants have employed MRL-Tnfrs6/1 pr mice, which spontaneously develop high levels of a wide range of antibodies and an SLE-like syndrome, including severe lymphoadrenopathy. The MRL-mouse strain is known to develop a severe autoimmune disease syndrome. In fact, it is known to develop the most severe disease state. Highs levels of circulating autoantibodies, immunocomplexes mediated glomerulonephritis, arthritis and vasculitis are observed. The mice also develop a heavy proliferation of lymph nodes.
(§2) The presence of circulating immunocomplexes is analyzed indirectly by continuous monitoring of the levels of protein, hemoglobin and erythrocytes in the urine of these animals, the quantities of which are directly related to the severity of the immunocomplex-mediated glomerulonephritis which develops. […] The effectiveness of a low dose of the substance and 100% reproducibility argue for a direct inhibition of the mechanism(s) underlying development of the disease.
The symptoms which these mice develop include deterioration of joints and consequent motor difficulties, kidney damage with resulting uremia (retention of fluid) and extreme lymphoadenopathy. This lymphoadenopathy arises from defects in the FAS antigen gene resulting from the lymphoproliferation (1 pr) mutation in MRL-mice. In the final stages of their disease these animals also develop dermal vasculitis. 100% of these mice develop these symptoms.
The degree of renal damage can be monitored on the basis of the level of protein, erythrocytes, hemoglobin and hyalin cylinders in the urine. Lymphocyte proliferation can be assessed from the growth of lymph nodes in the shoulders and groin, as well as along the aorta. Blood and tissue samples are collected for analysis and histopathological examination.
Animal Model: MRL/MpJ-Tnfrsf6^1pr-Mice
This strain develops spontaneous systemic lupus erythematosus-like autoimmune syndrome at or about 8 weeks of age. The syndrome is characterized by massive lymphadenopathy, immune complex glomerulonephritis, arthritis, high level of circulating antibodies, and vasculitis.
Compounds A and B were tested. Compound A was a reference compound and compound B was PFOA. Treatment was initiated at the age of 5 and 8 weeks, respectively. All animals received the respective compounds on a daily basis. A control group of mice without treatment was run in parallel. The following parameters were screened.
2. Investigation of urine sediment.
3. Monitoring of proteinuria.
Parameters followed during the study: 1) Clinical observation; 2) Urine: light microscopy, proteinuria. The following organs were sampled: thymus, lymph nodes, kidney, liver, and spleen. The organs were investigated by histopathology and immunohistopathology.

MRL/MpJ-Tnfrsf6^1pr-Mice [2] = assay: Withdrawal study in treated MRL mice; assay type: in vivo
Method: as §2, §1
In a separate study compound B was withdrawn from mice treated during 23-26 weeks. The mice were followed for up to 39-42 weeks.

[3] = daily treatment started at age 5 or 8 weeks
[4] = mouse, in vivo, listed as perfluorooctanoic acid

O=C(O)C(F)(F)C(F)(F)C(F)(F)C(F)(F)C(F)(F)C(F)(F)C(F)(F)F [Compound B, Perfluorooctanoic acid]
antibody response to foreign antigens (horse erythrocytes): no antibody response | thymus and spleen (thymus and spleen): a reduction of thymus and spleen was observed | anasarca (MRL/MpJ-Tnfrsf6^1pr-Mice [1]; at autopsy): no anasarca was detected | survival rate (MRL/MpJ-Tnfrsf6^1pr-Mice [1]; compared to control group and compound A treated mice): clear-cut increase of survival rate | body weight (MRL/MpJ-Tnfrsf6^1pr-Mice [1]; [3]): No body weight gain | enlarged lymph nodes (MRL/MpJ-Tnfrsf6^1pr-Mice [1]; [3]): No | clinical observation: activity / movement (MRL/MpJ-Tnfrsf6^1pr-Mice [1]; mouse, in vivo): very active | fur (MRL/MpJ-Tnfrsf6^1pr-Mice [1]; mouse, in vivo): normal fur | lymphadenopathy (MRL/MpJ-Tnfrsf6^1pr-Mice [1]; mouse, in vivo): No lymphadenothapy was observed | ulcers (MRL/MpJ-Tnfrsf6^1pr-Mice [1]; mouse, in vivo): No ulcers were observed | signs / symptoms of disease during treatment (MRL/MpJ-Tnfrsf6^1pr-Mice [1]; mouse, in vivo, listed as compound B): did not develop any signs of disease | signs / symptoms of disease during treatment (MRL/MpJ-Tnfrsf6^1pr-Mice [1]; [4]): none of these disease symptoms are observed | proteinuria (MRL/MpJ-Tnfrsf6^1pr-Mice [1]; urine, daily treatment started at age 5 or 8 weeks): No | disease symptoms when treatment is terminated / substance withdrawn (MRL/MpJ-Tnfrsf6^1pr-Mice [2]; [4]): the animals develop disease symptoms; also recorded: the mice begin to develop typical disease symptoms | time after withdrawal at which proteinuria was observed (MRL/MpJ-Tnfrsf6^1pr-Mice [2]; treated during 23-26 weeks): 5 weeks | weight after withdrawal (MRL/MpJ-Tnfrsf6^1pr-Mice [2]; treated during 23-26 weeks, followed up to 39-42 weeks): an increase in weight was observed | clinical symptoms after withdrawal (MRL/MpJ-Tnfrsf6^1pr-Mice [2]; treated during 23-26 weeks, followed up to the 42 week point): no sign of symptoms were observed
